Values after ≈ are worked out from the molar mass of the structure shown. Values joined by “and” are separate entries in the source; they are usually repeats but may differ in a detail not shown here. Equal entries are not always repeated. Where two headings read alike, the source gives them in different places.
Legend:
C. perfringens [1] = assay type: cell-based, Clostridium perfringens
C. perfringens [2] = assay type: cell-based, Clostridium perfringens; remark: listed apart in the source
A. ochraceus (DSMZ 824) = details: DSMZ 824, pH 7
[3] = lipid monolayer at air-water interface on PBS pH 7.4, peptide 1 µM, initial pressure 10-30 mN/m, extrapolated to delta pressure 0
Protocol: (§1) Peptide–lipid interaction was evaluated using reconstituted lipid monolayer at the air–water interface as previously described. Pure prokaryotic and eukaryotic lipids used were: POPC (1-palmitoyl-2-oleoyl-glycero-3-phosphocholine), POPE (1-palmitoyl-2-oleoyl-sn-glycero-3-phosphoethanolamine), POPG (1-palmitoyl-2-oleoyl-sn-glycero-3-phospho-(1’-rac-glycerol), and cardiolipin, all from Avanti Polar Lipid (Alabama, USA). LTA (Lipoteichoic acid from B. subtilis) was obtained from Invivogen SAS (Toulouse, France). Pure lipids were reconstituted in chloroform:methanol (2:1, v:v) at 1 mg/mL and stored at −20 °C under nitrogen. The interaction and insertion of the ENN and BEA into lipids were evaluated through the measurement of their critical pressure of insertion as previously described. Briefly, lipids were spread using a 50 µL Hamilton’s syringe at the surface of 800 µL of sterile PBS creating a lipid monolayer at the air–water interface. Lipids were added until the surface pressure reached the desired value. After 5–10 min of incubation allowing evaporation of the solvent and stabilization of the initial surface pressure, 8 µL of ENN or BEA diluted in sterile PBS at 100 µM were injected into the 800 µL sub-phase of PBS under the lipid monolayer (pH 7.4, volume 800 µL) using a 10 µL Hamilton syringe giving a final concentration of peptides of 1 µM, preliminary experiments having shown that this concentration gave optimal insertion. The variation of the surface pressure caused by peptide injection was then continuously monitored using a fully automated microtensiometer (µTROUGH SX, Kibron Inc., Helsinki, Finland) until reaching equilibrium (maximal surface pressure increase being usually obtained after 15–25 min). The critical pressure of insertion of each peptide was determined by changing the initial pressure of lipid monolayer (from 10 and 30 mN/m) and measuring the variation of pressure caused by the insertion of the peptide. The critical pressure of insertion of each peptide in a particular lipid was determined graphically and calculated as the theoretical value of initial pressure of lipid monolayer not permissive to peptide insertion, i.e., causing a variation of pressure equal to 0 mN/m.

[4] = system: Helicobacter pylori (ATCC 43504)
[5] = set-up: species or system B. subtilis; key: -- indicates the absence of interaction; details: lipid monolayer on PBS pH 7.4, peptide 1 µM, extrapolated to delta pressure 0; -- = absence of interaction
Protocol: as §1

[6] = set-up: key: -- indicates the absence of interaction; details: lipid monolayer on PBS pH 7.4, peptide 1 µM, extrapolated to delta pressure 0; -- = absence of interaction
Protocol: as §1

[7] = system: Methicillin-resistant S. aureus strain MRSA USA300
[8] = system: Mycobacterium smegmatis (mc2155, ATCC 700084); details: mc2155, 72 h
[9] = system: Penicillium verrucosum (DSMZ 12639); details: DSMZ 12639, pH 7
A. niger (ATCC 9142) = details: ATCC 9142, pH 7
[10] = system: Bacillus subtilis (ATCC 6633)
[11] = system: Clostridium perfringens (ATCC 13124)
[12] = system: F. verticillioides (DSMZ 62264); details: DSMZ 62264, pH 7
[13] = system: Escherichia coli (ATCC 8739)
[14] = system: Vancomycin-resistant Enterococcus faecalis (DSMZ 13591)
[15] = system: Acinetobacter baumannii (CIP 110431)
[16] = system: Candida albicans (DSMZ 10697); details: DSMZ 10697, 24 h, pH 7
human erythrocytes = details: pH 7.4
[17] = system: Fusarium graminearum (DSMZ 1095); details: DSMZ 1095, pH 7
[18] = system: N87 (human gastric cell line); details: 48 h
[19] = system: Staphylococcus aureus (ATCC CRM-6538P)
[20] = system: HEK (human normal epidermal keratinocytes); details: 48 h
C. perfringens [21] = assay type: cell-based, Clostridium perfringens; remark: listed apart in the source
[22] = system: Aspergillus flavus (DSMZ 1959); details: DSMZ 1959, pH 7
[23] = system: Pseudomonas aeruginosa (ATCC CRM-9027)
[24] = system: Nisin-resistant B. subtilis (DSMZ 347)
[25] = system: Stachybotrys chartarum (DSMZ 2144); details: DSMZ 2144, pH 7
[26] = system: F. oxysporum (DSMZ 62316); details: DSMZ 62316, pH 7
[27] = C. perfringens, 5 x MIC, 4 h, 37 °C, anaerobic, FM4-64FX membrane and DAPI DNA staining, confocal microscope

Q: Which “Observed Morphology” value (C. perfringens [1]; [27]) does the source give for CC1(C)S[C@@H]2[C@H](NC(=O)[C@H](N)c3ccc(O)cc3)C(=O)N2[C@H]1C(=O)O [Amoxicillin, reference compound] here?
A: • Elongated cells (5–6 times compared to control) • Normally condensed DNA

Q: For CC(C)[C@H]1OC(=O)[C@H](Cc2ccccc2)N(C)C(=O)[C@@H](C(C)C)OC(=O)[C@H](Cc2ccccc2)N(C)C(=O)[C@@H](C(C)C)OC(=O)[C@H](Cc2ccccc2)N(C)C1=O [BEA, Beauvericin], which “percentage of permeabilization at four times the MIC” value (C. perfringens [2]) is on record?
A: 1.8 ± 2.8%

Q: What about the “MIC, A. ochraceus” value (A. ochraceus (DSMZ 824)) of the same compound?
A: >100 µM

Q: And the “critical pressure of insertion, POPC” value [3]?
A: 41.65 mN/m

Q: And the “critical pressure of insertion, POPE” value [3]?
A: 32.46 mN/m

Q: What about the “MIC, H. pylori” value [4] of the same compound?
A: >100 µM

Q: What about the “critical pressure of insertion, LTA” value [5] of the same compound?
A: --

Q: What about the “critical pressure of insertion, POPG” value [6] of the same compound?
A: --

Q: And the “MIC, S. aureus MRSA” value [7]?
A: 6.25 to 12.5 µM

Q: What about the “MIC, M. smegmatis” value [8] of the same compound?
A: 25 µM (≈ 19.6 µg/mL)

Q: And the “MIC, P. verrucosum” value [9]?
A: >100 µM

Q: What about the “MIC, A. niger” value (A. niger (ATCC 9142)) of the same compound?
A: >100 µM

Q: And the “MIC, B. subtilis” value [10]?
A: 6.25 to 12.5 µM

Q: And the “MIC, C. perfringens” value [11]?
A: 6.25 µM (≈ 4.9 µg/mL)

Q: And the “MIC, F. verticillioides” value [12]?
A: >100 µM

Q: What about the “MIC, E. coli” value [13] of the same compound?
A: >100 µM

Q: And the “MIC, E. faecalis” value [14]?
A: 12.5 µM (≈ 9.8 µg/mL)

Q: What about the “MIC, A. baumannii” value [15] of the same compound?
A: >100 µM

Q: And the “MIC, C. albicans” value [16]?
A: 6.25 µM (≈ 4.9 µg/mL)

Q: And the Known/possible target (C. perfringens [1])?
A: Protein biosynthesis

Q: What about the “Observed Morphology” value (C. perfringens [1]) of the same compound?
A: • No cell elongation • DNA condensed in 1–4 circles per cells

Q: And the “HC50 (dose causing 50% hemolysis), Erythrocytes” value (human erythrocytes)?
A: 118.9 ± 15.8 µM

Q: What about the “MIC, F. graminearum” value [17] of the same compound?
A: 25 µM (≈ 19.6 µg/mL)

Q: What about the IC50 [18] of the same compound?
A: 27.5 ± 0.7 µM

Q: What about the “MIC, S. aureus” value [19] of the same compound?
A: 12.5 µM (≈ 9.8 µg/mL)

Q: What about the IC50 [20] of the same compound?
A: 5.4 ± 0.9 µM

Q: What about the “membrane depolarization at 100 µM” value (C. perfringens [21]) of the same compound?
A: 59.1 ± 2.0%

Q: And the “membrane depolarization at four times their MIC” value (C. perfringens [21])?
A: 63.8 ± 4.8%

Q: What about the “membrane depolarization at their MIC” value (C. perfringens [21]) of the same compound?
A: 38.3 ± 3.3% and 30–40%

Q: And the “MIC, A. flavus” value [22]?
A: >100 µM

Q: And the “MIC, P. aeruginosa” value [23]?
A: >100 µM

Q: And the “MIC, B. subtilis NR” value [24]?
A: 6.25 to 12.5 µM

Q: And the “MIC, S. chartarum” value [25]?
A: >100 µM

Q: And the “MIC, F. oxysporum” value [26]?
A: >100 µM

Q: For CO/N=C1\CN(c2nc3c(cc2F)c(=O)c(C(=O)O)cn3C2CC2)CC1CN (stereo not shown) [Gemifloxacin, reference compound], which “Observed Morphology” value (C. perfringens [1]; [27]) is on record?
A: • Elongated cells (5–6 times compared to control) • Decondensed DNA • Chain formation

Q: Which “Observed Morphology” value (C. perfringens [1]; [27]) does the source give for CO[C@H]1/C=C/O[C@@]2(C)Oc3c(C)c(O)c4c(O)c(c(/C=N/N5CCN(C)CC5)c(O)c4c3C2=O)NC(=O)/C(C)=C\C=C\[C@H](C)[C@H](O)[C@@H](C)[C@@H](O)[C@@H](C)[C@H](OC(C)=O)[C@@H]1C [Rifampicin, reference compound] here?
A: • No cell elongation • DNA condensed in one filament crossing the cells

Q: With CN(C)[C@@H]1C(O)=C(C(N)=O)C(=O)[C@@]2(O)C(O)=C3C(=O)c4c(O)cccc4[C@@](C)(O)[C@H]3C[C@@H]12 [Tetracycline, reference compound] as the compound, how does the “Observed Morphology” value (C. perfringens [1]; [27]) read?
A: • Some cell elongation (1.5–2 times compared to control) • DNA condensed in 1–4 circles per cells

— publication PMC6784244 (Toxins, 2019)
